ChEMBL document CHEMBL1201862, “PubChem BioAssay data set” (2004)
Activity calls are given as the source filed them.

Columns and labels:
[1] = biological target: Epstein-Barr nuclear antigen 1 (Epstein-Barr virus (strain B95-8) (HHV-4) (Human herpesvirus 4), UniProt P03211); experiment: inhibition of EBV nuclear antigen 1 DNA binding – biochemical, fluorescence polarization, 1536-well, dose response (AID 2381); parameters: species or system human gammaherpesvirus 4;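 note: fluorescence polarization of a Cy5 DNA probe bound by EBNA-1 protein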
[2] = biological target: Lytic switch protein BZLF1 (Epstein-Barr virus (strain B95-8) (HHV-4) (Human herpesvirus 4), UniProt P03206); experiment: inhibition of BZLF1 ZTA DNA binding – biochemical, fluorescence polarization, Epstein-Barr virus, 1536-well, counter-screen for EBNA-1 inhibitor project, dose response (AID 2377); parameters: species or system human gammaherpesvirus 4;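 note: fluorescence polarization of Cy5-labelled ZRE DNA probe bound by purified Zta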
[3] = biological target: T1, E3 ubiquitin-protein ligase XIAP (Homo sapiens, UniProt P98170); experiment: Counter Screen using XIAP-Bir3 for Chemical Antagonists of Bir1/2 domains of IAP-family anti-apoptotic proteins. [Related pubchem assays (depositor defined):AID1018, AID1449, AID1514, AID1638, AID1749, AID1750, AID488957, AID488963]
T1 sequence (P98170 whole entry): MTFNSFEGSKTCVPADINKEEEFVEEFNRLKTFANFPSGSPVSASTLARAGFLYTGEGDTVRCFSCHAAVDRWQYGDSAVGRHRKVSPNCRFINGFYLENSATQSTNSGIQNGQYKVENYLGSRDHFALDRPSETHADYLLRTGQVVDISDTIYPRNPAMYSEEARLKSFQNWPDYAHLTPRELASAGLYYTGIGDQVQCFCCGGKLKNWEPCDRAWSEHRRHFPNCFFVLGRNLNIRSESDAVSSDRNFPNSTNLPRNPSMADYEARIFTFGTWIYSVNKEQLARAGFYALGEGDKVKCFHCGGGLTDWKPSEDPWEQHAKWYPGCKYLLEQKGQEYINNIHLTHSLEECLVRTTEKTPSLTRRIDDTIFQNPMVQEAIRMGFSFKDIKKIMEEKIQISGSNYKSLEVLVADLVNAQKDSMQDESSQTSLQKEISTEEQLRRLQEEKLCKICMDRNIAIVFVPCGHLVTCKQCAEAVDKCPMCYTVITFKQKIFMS

[4] = biological target: T1, E3 ubiquitin-protein ligase XIAP; experiment: small molecules displacing peptide from XIAP – biochemical, IAP family, fluorescence polarization (AID 1018); assay type: functional
[5] = HPDE-C7 pancreatic duct cell viability loss – fluorescence, HTS (AID 430); assay type: functional, cell-based; settings: Homo sapiens
[6] = Trypanosoma cruzi growth suppression in host cells – NIH3T3 host cells, beta-gal luminescence, confirmation (AID 2044); assay type: functional, cell-based;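 note: intracellular parasites grown in NIH/3T3 mouse fibroblasts as host cells; luminescent beta-galactosidase reporter signal from transgenic T. cruzi replicating inside host cells; inhibitors lower the luminescence signal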
[7] = viability loss of HPDE-C7K cells – cell-based, fluorescence, HTS, primary screen (AID 431); assay type: functional; settings: Homo sapiens
[8] = NIH3T3 cell viability loss – ATP luminescence, mouse fibroblasts, counter-screen, dose response (AID 2010); assay type: functional, cell-based;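 note: cells exposed to compound for about 90 hours before reading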
[9] = biological target: Glucose-6-phosphate 1-dehydrogenase (Homo sapiens, UniProt P11413); experiment: inhibition of Homo sapiens G6PD, dose series – biochemical, fluorescence, selectivity assay for P. falciparum G6PD inhibitor project, dose response (AID 504792); assay type: functional
[10] = biological target: Neurotensin receptor type 1 (Homo sapiens, UniProt P30989); assay type: functional;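 note: Image-based confirmatory dose-response assay measuring agonist activity at NTR1; NTR1-expressing U2OS osteosarcoma cells imaged for beta-arrestin GFP spot formation; agonist potency where compounds increase beta-arrestin recruitment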
Vero = experiment: cells; assay type: functional; settings: Chlorocebus sabaeus
[11] = reduction of Shn3 3'UTR-driven luciferase in osteoblasts – cell-based, Clone20 osteoblasts, firefly luciferase, cherry-picked, dose response (AID 624132); assay type: functional;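 note: firefly luciferase luminescence from reporter carrying the Shn3 3'UTR in osteoblasts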
[12] = loss of viability in HepG2 cells – cell-based, CellTiter-Glo, cherry-picked, cytotoxicity control for Shn3 inhibitor project, dose response (AID 624134); assay type: functional
[13] = non-specific 3'UTR reporter inhibition in Clone20-Shn3RL – cell-based, Renilla luciferase, cherry-picked, counter-screen for Shn3 inhibitor project, dose response (AID 624133); assay type: functional
[14] = biological target: Luciferin 4-monooxygenase (Photinus pyralis, UniProt P08659); experiment: Counter Screen for Luciferase-based Assay Positives. [Related pubchem assays: 620, 618, 411 ]
HT-1080 = experiment: HT1080 cell viability loss – fluorescence readout (AID 620); assay type: functional, cell-based; settings: Homo sapiens
Estrogen receptor = biological target: T2, Estrogen receptor (Homo sapiens, UniProt P03372);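 note: potency for inhibiting coactivator peptide recruitment to the receptor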
T2 sequence (P03372 whole entry): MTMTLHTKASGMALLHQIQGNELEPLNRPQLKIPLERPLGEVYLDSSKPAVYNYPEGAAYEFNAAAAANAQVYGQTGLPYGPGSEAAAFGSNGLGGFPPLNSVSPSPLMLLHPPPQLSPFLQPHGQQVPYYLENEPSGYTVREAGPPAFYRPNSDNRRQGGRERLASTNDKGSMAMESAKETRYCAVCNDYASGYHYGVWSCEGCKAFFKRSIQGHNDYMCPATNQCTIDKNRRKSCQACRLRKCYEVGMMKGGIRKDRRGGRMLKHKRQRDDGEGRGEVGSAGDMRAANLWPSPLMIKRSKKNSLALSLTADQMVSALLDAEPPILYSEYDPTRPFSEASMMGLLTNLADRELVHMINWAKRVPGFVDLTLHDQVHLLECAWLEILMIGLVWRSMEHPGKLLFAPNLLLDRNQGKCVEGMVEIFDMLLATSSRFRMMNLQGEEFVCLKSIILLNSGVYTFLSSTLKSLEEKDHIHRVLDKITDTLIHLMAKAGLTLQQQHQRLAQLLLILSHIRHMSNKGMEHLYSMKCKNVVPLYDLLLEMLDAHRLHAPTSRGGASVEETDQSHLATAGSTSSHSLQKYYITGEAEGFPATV

[15] = biological target: Peroxisome proliferator-activated receptor gamma/Nuclear receptor coactivator 2 (Homo sapiens, UniProt P37231); assay type: functional;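 note: agonist potency for raising coactivator recruitment to the receptor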
Peroxisome proliferator-activated receptor gamma/Nuclear receptor coactivator 2, sequence (P37231 whole entry): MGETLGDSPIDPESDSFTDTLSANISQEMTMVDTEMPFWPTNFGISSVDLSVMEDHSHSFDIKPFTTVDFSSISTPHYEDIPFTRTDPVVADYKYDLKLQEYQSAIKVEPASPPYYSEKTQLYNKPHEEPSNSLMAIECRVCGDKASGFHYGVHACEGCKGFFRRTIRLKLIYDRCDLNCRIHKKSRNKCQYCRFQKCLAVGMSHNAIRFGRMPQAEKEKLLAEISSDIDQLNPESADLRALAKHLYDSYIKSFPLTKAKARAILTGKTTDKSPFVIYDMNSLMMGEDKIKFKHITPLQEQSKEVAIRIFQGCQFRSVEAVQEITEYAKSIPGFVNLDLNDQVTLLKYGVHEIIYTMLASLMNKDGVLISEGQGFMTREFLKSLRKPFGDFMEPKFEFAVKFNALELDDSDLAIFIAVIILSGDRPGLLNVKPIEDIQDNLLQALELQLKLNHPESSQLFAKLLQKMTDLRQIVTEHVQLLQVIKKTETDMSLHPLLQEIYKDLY
Peroxisome proliferator-activated receptor gamma/Nuclear receptor coactivator 2, sequence (Q15596 whole entry, further chain): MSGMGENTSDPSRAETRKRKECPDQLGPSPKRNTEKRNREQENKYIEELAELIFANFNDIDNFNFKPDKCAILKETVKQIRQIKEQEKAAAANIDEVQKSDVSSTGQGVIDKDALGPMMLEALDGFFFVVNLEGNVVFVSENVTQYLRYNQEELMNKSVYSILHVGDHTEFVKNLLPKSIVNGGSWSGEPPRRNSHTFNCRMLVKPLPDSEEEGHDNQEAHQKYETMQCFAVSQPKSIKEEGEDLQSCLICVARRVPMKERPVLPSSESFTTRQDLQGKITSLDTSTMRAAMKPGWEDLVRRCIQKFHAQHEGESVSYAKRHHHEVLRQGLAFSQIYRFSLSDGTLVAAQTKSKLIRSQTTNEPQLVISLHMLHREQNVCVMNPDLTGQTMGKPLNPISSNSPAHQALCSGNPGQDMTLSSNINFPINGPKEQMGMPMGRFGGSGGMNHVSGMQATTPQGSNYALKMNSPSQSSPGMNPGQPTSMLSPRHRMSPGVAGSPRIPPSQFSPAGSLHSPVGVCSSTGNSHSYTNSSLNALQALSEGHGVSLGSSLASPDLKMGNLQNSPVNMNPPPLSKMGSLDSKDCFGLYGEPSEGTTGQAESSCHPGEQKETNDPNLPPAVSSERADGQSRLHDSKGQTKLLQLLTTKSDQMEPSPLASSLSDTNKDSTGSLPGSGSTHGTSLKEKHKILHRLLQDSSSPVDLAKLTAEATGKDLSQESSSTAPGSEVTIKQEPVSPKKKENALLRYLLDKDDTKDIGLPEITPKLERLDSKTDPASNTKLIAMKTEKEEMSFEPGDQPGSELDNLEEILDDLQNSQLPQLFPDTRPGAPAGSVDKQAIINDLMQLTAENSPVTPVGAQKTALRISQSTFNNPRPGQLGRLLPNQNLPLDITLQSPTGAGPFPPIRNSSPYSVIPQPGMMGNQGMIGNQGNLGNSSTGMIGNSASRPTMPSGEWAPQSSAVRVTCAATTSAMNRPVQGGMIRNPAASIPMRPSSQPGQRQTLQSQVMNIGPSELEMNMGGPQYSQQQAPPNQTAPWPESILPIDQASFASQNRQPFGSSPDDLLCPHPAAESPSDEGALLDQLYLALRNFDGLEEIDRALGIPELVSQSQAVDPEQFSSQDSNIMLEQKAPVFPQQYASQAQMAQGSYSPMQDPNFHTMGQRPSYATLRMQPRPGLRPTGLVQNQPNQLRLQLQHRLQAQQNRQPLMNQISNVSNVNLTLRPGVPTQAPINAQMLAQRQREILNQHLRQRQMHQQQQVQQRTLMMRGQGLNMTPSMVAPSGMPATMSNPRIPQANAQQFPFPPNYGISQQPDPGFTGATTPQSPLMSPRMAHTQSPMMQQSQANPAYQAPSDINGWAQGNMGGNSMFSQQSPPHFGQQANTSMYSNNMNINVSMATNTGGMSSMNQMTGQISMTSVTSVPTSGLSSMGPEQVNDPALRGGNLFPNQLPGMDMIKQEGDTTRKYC

[16] = biological target: Peroxisome proliferator-activated receptor gamma/Nuclear receptor coactivator 1 (Homo sapiens, UniProt P37231); assay type: functional;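 note: agonist potency as compounds enhance coactivator SRC-1 recruitment to PPARgamma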
Peroxisome proliferator-activated receptor gamma/Nuclear receptor coactivator 1, sequence (P37231 whole entry): as the sequence (P37231 whole entry) above
Peroxisome proliferator-activated receptor gamma/Nuclear receptor coactivator 1, sequence (Q15788 whole entry, further chain): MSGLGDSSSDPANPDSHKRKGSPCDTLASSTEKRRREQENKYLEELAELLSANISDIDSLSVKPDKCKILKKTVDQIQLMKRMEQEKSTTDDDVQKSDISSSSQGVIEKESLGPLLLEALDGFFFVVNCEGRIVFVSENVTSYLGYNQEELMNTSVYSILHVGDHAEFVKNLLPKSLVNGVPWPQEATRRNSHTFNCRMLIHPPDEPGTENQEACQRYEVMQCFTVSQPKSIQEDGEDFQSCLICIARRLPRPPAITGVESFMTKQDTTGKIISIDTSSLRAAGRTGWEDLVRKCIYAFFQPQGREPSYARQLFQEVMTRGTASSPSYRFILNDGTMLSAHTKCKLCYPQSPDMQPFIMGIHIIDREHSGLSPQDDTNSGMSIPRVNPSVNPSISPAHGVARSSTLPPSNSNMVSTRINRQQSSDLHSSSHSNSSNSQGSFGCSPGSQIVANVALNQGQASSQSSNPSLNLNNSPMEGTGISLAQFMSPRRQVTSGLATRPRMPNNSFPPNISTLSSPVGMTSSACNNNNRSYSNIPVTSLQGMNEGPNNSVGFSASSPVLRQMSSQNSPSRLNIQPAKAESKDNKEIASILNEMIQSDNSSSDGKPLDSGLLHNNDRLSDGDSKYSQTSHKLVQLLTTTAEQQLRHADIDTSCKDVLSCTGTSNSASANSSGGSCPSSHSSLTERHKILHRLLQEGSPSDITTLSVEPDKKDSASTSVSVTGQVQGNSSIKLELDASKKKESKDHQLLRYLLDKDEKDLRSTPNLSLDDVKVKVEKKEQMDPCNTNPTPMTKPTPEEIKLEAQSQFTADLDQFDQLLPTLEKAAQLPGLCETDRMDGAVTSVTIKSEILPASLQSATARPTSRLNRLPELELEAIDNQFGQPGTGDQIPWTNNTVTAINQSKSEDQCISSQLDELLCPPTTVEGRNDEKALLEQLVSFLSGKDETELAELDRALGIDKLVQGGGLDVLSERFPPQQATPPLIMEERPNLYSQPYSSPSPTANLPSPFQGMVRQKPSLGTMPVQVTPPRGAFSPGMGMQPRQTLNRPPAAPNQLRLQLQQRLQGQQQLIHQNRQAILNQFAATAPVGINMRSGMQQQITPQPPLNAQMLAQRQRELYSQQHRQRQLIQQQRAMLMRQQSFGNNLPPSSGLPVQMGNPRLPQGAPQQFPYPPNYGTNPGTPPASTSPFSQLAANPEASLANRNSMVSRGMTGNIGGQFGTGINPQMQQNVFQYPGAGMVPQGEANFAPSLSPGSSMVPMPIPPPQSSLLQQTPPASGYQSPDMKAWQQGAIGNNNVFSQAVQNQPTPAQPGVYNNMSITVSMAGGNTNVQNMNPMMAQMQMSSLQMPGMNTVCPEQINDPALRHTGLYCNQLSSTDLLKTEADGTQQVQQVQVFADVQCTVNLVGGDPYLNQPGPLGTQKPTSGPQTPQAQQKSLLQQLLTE

[17] = biological target: Peroxisome proliferator-activated receptor gamma/Nuclear receptor coactivator 3 (Homo sapiens, UniProt P37231); assay type: functional;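 note: agonist potency for raising coactivator recruitment to the receptor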
Cytochrome P450 2C19 = Cytochrome P450 2C19 (Homo sapiens, UniProt P33261); experiment: Cytochrome panel assay with activity outcomes. Panel member name: p450-cyp2c19 Compounds with AC50 equal or less than 10 uM are considered active; assay type: functional; settings: read-out: AC50
Cytochrome P450 2C19, sequence (P33261 whole entry): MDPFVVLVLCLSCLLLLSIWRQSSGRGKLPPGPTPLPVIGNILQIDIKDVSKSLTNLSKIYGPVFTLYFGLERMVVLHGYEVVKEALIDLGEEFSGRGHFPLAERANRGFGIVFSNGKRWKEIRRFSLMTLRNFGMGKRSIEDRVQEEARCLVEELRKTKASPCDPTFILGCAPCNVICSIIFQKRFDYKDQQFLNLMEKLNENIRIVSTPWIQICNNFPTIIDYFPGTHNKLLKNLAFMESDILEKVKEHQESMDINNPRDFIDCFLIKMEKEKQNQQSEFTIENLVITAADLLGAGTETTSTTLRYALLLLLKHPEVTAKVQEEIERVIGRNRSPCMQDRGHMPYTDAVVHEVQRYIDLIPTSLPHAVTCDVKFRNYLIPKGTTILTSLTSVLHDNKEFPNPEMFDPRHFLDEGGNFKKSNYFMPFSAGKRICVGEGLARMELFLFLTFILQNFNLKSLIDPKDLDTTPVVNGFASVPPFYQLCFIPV

Cytochrome P450 2C9 = Cytochrome P450 2C9 (Homo sapiens, UniProt P11712)

With `O=C(COC(=O)/C=C/c1ccccc1)Nc1cc(C(F)(F)F)ccc1N1CCOCC1` the IC50 [1] was 7.3 µM (active) and the IC50 [2] was > 111 µM (not active).

For `Cc1sc2nc(CN(C(=O)NC3CCCCC3)C3CCCCC3)nc(O)c2c1C`, the IC50 [3] was > 100 µM (inactive) and the IC50 [4] was > 100 µM (not active).

In the case of `O=C(Nc1ccc(N2CCN(C(=O)c3ccco3)CC2)c(Cl)c1)c1cc2ccccc2o1`, the EC50 [5] was 17.5 µM (active), the EC50 [6] was 2.3 µM (active) and the EC50 [7] was 16.2 µM (active). The EC50 [8] was 8.95 µM (active), the IC50 [9] was > 80 µM (inactive) and the EC50 [10] was 6 µM (active). The CC50 (Vero) was 11.2 µM (active), the AC50 [11] was 5 µM (active) and the AC50 [12] was 7.49 µM (active). The AC50 [13] was 17.6 µM (active).

With `Fc1ccccc1OCCSc1nnnn1-c1ccccc1` the EC50 [14] was 3.32 µM (active) and the EC50 (HT-1080) was > 50 µM (not active).

In the case of `CCOC(=O)C1=C(Nc2ccc(C)cc2)S/C(=C\c2cn(CC(=O)NCC3CCCO3)c3ccccc23)C1=O` (configuration not stated), the IC50 (Estrogen receptor) was 7.6 µM (active).

For `CCOC(=O)c1sc2nc(CC(=O)OC)nc(NCc3ccc(F)cc3)c2c1C`, the EC50 [15] was > 79.4 µM (not active), the EC50 [16] was > 79.4 µM (not active) and the EC50 [17] was > 79.4 µM (not active). For the same compound, the AC50 (Cytochrome P450 2C19) was 5.62 µM (inconclusive) and the AC50 (Cytochrome P450 2C9) was 5.01 µM (inconclusive).
